# From patent US12239652B2, “Composition for preventing or treating muscular diseases, or for improving muscular functions, containing ganglioside” (INDUSTRY-ACADEMIC COOPERATION FOUNDATION, YONSEI UNIVERSITY, priority 2018, dated 2025)
# Tests used:
# Wistar rats = assay: Muscle mass (soleus weight) in TNF-α-induced muscular atrophy animal model; format: in vivo; conditions: 50 mg/kg body weight once a day for 8 weeks
# Description: Wistar rats, aged five weeks, were acclimatized for one week and supplied with 100 ng/g of TNF-α for 2 weeks to induce muscular atrophy. The animals were randomly divided into a total of 5 groups, 8 animals per group, depending on their weight. Each of gangliosides GM3, GM1, GD1a, GT1b, and GQ1b (each 50 mg/kg body weight) as experimental groups was suspended in 0.25% carboxymethylcellulose. The suspension was administered at a given time once a day for 8 weeks. A group administered the same amounts of 0.25% carboxymethyl cellulose and TNF-α ingested by each experimental group was used as a control.
# After administration of the sample for 8 weeks, the right soleus was dissected and its weight was measured with a microbalance (Mettler PE160, USA).
# p-4EBP1 = assay: Western blot of mRNA translation biomarkers in TNF-α-treated L6 myotubes: p-4EBP1; format: cell-based; conditions: 50 ng/mL TNF-α, 15 μM or 25 μM
# Description: (§1) L6 myoblasts (ATCC) were seeded with DMEM (Hyclone) supplemented with 10% FBS (Hyclone) in a 6-well plate at a density of 1×10^5 cells/well, followed by culture. When the cultured cells reached a confluency of ˜80-85% per well, the media in the wells were replaced with DMEM (Hyclone) supplemented with 2% HS (Hyclone), followed by culture for additional 6 days to induce differentiation into myotubes. During culture for 6 days, the culture media were changed once every other day a total of 3 times. […] A group treated with 0.01% DMSO instead of the sample was used as a control. Cells were lysed with NP-40 buffer (ELPIS-Biotech, Daej eon, Korea) with a protease inhibitor cocktail (Sigma-Aldrich, St. Louis, MO, USA) and centrifuged at 13,000 rpm for 10 min. The cell lysate was obtained from the supernatant. The concentration of proteins in the supernatant was determined by the Bradford method (Bio-Rad Laboratories Inc.). Proteins at a certain concentration were heated for 5 min and separated by SDS-PAGE electrophoresis. The separated proteins were transferred to nitrocellulose membranes. Then, p-mTOR, mTOR, p-p70S6K, p70S6K, p-4EBP1, 4EBP1, and alpha-tubulin primary antibodies (Cell signaling technology, Beverly, MA, USA) were diluted at a ratio of 1:1000 with 2.5% bovine serum albumin (BSA; Bioworld, Dubin, OH, USA) and incubated with the proteins transferred to the nitrocellulose membranes at room temperature for 20 h. After incubation of the primary antibodies, the nitrocellulose membranes were washed 3 times with Tris-buffer saline Tween 20 (TBST) for 10 min. After washing, an anti-rabbit secondary antibody (Bethyl Laboratories, Inc., Montgomery, TA, USA) conjugated with horseradish peroxidase recognizing the primary antibodies was diluted 1:5000 with 2.5% BSA (Bioworld) and incubated with the nitrocellulose membranes at room temperature for 2 h. […]
# (§2) Protein bands detected through antibody binding were developed using an ECL western blot detection reagent (Amersham, Tokyo, Japan) and visualized using a G;BOX EF imaging system (Syngene, Cambridge, UK). […]
# p-p70S6K = assay: Western blot of mRNA translation biomarkers in TNF-α-treated L6 myotubes: p-p70S6K; format: cell-based; conditions: 50 ng/mL TNF-α, 15 μM or 25 μM
# Description: as §1, §2
# mTOR = mTOR Sandwich ELISA in L6 myotubes (activity for myogenic induction); format: cell-based; conditions: 15 μM or 25 μM, 12-h culture, *P<0.05
# Description: The mTOR protein is known to induce the activation of proteins involved in muscle protein synthesis and an increase in muscle mass in the PI3K/Akt signaling pathway in muscle cells when phosphorylated and activated. Thus, the activity of mTOR was confirmed using an mTOR Sandwich ELISA kit (Cell Signaling Technology, Beverly, MA, USA) to determine the activity of ganglioside GM3 for myogenic induction.
# L6 myoblasts (ATCC; Manassas, VA, USA) were seeded with Dulbecco's modified Eagle's media (DMEM; Hyclone) supplemented with 10% fetal bovine serum (FBS; Hyclone, Logan, UT, USA) in a 6-well plate at a density of 1×10^5 cells/well, followed by culture for 24 h. The media in the wells were replaced with DMEM (Hyclone) supplemented with 2% horse serum (HS; Hyclone), followed by culture for additional 6 days to differentiate the L6 cells into myotubes. Then, cells were treated with ganglioside GM3 (Cayman, Ann Arbor, MI, USA) at a concentration of 1 μM or 5 μM. After 12-h culture, cells were lysed by treatment with a cell lysis buffer. Proteins in the cell lysate were quantified by the Bradford method (Bio-Rad Laboratories Inc., Hercules, CA, USA) and the concentration of the cell lysate was then adjusted to 1 mg/mL. The cell lysate was plated in microwells bound with anti-mTOR antibody (50 μL/well) and cultured at 37° C. for 2 h. Cells were washed a total of 4 times with a washing buffer, treated with a detection antibody, and cultured at 37° C. for 1 h, rewashed a total of 4 times with a washing buffer, added with a horseradish peroxidase (HRP)-conjugated secondary antibody, and cultured at 37° C. for 30 min. Finally, after washing a total of 4 times with a washing buffer, TMB substrate was added to each well. After culture at 37° C. for 10 min, a stop solution was added to stop the TMB reaction. 2 min later, absorbance was measured at a wavelength of 450 nm to determine the level of mTOR in the myotubes treated with ganglioside GM3.
# The procedure of Example 1 was repeated except that cells were treated with ganglioside GM1 (Cayman) at a concentration of 15 μM or 25 μM to examine the activity of the ganglioside for myogenic induction.
# The procedure of Example 1 was repeated except that cells were treated with ganglioside GD1a (Cayman) at a concentration of 1 μM or 3 μM to examine the activity of the ganglioside for myogenic induction.
# The procedure of Example 1 was repeated except that cells were treated with each of gangliosides GT1b and GQ1b (Cayman) at a concentration of 1 μM to examine the activity of the ganglioside for myogenic induction.
# atrogin-1 = assay: RT-PCR of muscle degrading protein mRNA in TNF-α-treated L6 myotubes: atrogin-1; format: cell-based; conditions: 50 ng/mL TNF-α, 15 μM or 25 μM
# Description: (§3) L6 myoblasts (ATCC) were seeded with DMEM (Hyclone) supplemented with 10% FBS (Hyclone) in a 6-well plate at a density of 1×10^5 cells/well, followed by culture. When the cultured cells reached a confluency of ˜80-85% per well, the media in the wells were replaced with DMEM (Hyclone) supplemented with 2% HS (Hyclone), followed by culture for additional 6 days to induce differentiation into myotubes. During culture for 6 days, the culture media were changed once every other day a total of 3 times. The differentiation-induced cells were harvested and the cell media were replaced with DMEM supplemented with 50 ng/mL TNF-α (PeproTech) in which ganglioside GM3 (Cayman) was dissolved at a concentration of 1 μM or 5 μM. A group treated with 0.01% DMSO instead of the sample was used as a control. Total RNA was isolated from cells using TRIzol reagent (Takara, Kyoto, Japan). The isolated total RNA was quantified using NanoDrop 1000 (Thermo Fisher Scientific Inc., Waltham, MA, USA). 16 μL of the RNA was synthesized into cDNA using Reverse Transcriptase Premix (ELPIS-Biotech) and a PCR system (Gene Amp PCR System 2700; Applied Biosystems, Foster City, CA, USA) at 42° C. for 55 min and 70° C. for 15 min. 3 μL of the synthesized cDNA, the specific primers shown in Table 1 (Bioneer, Daej eon, Korea), and PCR premix (ELPIS-Biotech) were mixed and PCR was repeated 30 times at 95° C. for 30 sec, 60° C. for 1 min, and 72° C. for 1 min. After PCR amplification, cDNA was separated by electrophoresis on a 1.5% agarose gel and the cDNA bands were visualized using a G;BOX EF imaging system (Syngene).
# (§4) The procedure of Example 8 was repeated except that cells were treated with ganglioside GM1 (Cayman) at a concentration of 15 μM or 25 μM to investigate the mRNA transcription and expression levels of atrogin-1 and MuRF1 as muscle degrading proteins.
# (§5) The procedure of Example 8 was repeated except that cells were treated with ganglioside GD1a (Cayman) at a concentration of 1 μM or 3 μM to investigate the mRNA transcription and expression levels of atrogin-1 and MuRF1 as muscle protein degradation-related enzymes.
# (§6) The procedure of Example 8 was repeated except that cells were treated with each of gangliosides GT1b and GQ1b (Cayman) at a concentration of 1 μM to investigate the mRNA transcription and expression levels of atrogin-1 and MuRF1 as muscle protein degradation-related enzymes.
# p-mTOR = assay: Western blot of mRNA translation biomarkers in TNF-α-treated L6 myotubes: p-mTOR; format: cell-based; conditions: 50 ng/mL TNF-α, 15 μM or 25 μM
# Description: as §1, §2
# MuRF1 = assay: RT-PCR of muscle degrading protein mRNA in TNF-α-treated L6 myotubes: MuRF1; format: cell-based; conditions: 50 ng/mL TNF-α, 15 μM or 25 μM
# Description: as §3, §4, §5, §6
structure (smiles),measurement,setting,value
"CCCCCCCCCCCCC/C=C/[C@@H](O)[C@H](CO[C@@H]1O[C@H](CO)[C@@H](O[C@@H]2O[C@H](CO)[C@H](O[C@@H]3O[C@H](CO)[C@H](O)[C@H](O[C@@H]4O[C@H](CO)[C@H](O)[C@H](O)[C@H]4O)[C@H]3NC(C)=O)[C@H](O[C@]3(C(=O)O)C[C@H](O)[C@@H](NC(C)=O)[C@H]([C@H](O)[C@H](O)CO)O3)[C@H]2O)[C@H](O)[C@H]1O)NC(=O)CCCCCCCCCCCCCCCCC [Ganglioside GM1, ganglioside GM1]",increase of muscle (soleus) weight compared to the control group,Wistar rats,22.11%
same,Average soleus weight,"Wistar rats; right soleus, control 416.0 ± 19.57",508.0 ± 19.8 mg
same,expression level of phosphorylated p-4EBP1 in L6 muscle cells,p-4EBP1,increased
same,expression level of phosphorylated p-P70S6K in L6 muscle cells,p-p70S6K,increased
same,activity of mTOR in L6 muscle cells,mTOR,significantly increased
same,mRNA expression level of atrogin-1 in L6 muscle cells,atrogin-1,reduced
same,expression level of phosphorylated p-mTOR in L6 muscle cells,p-mTOR,increased
same,mRNA expression level of MuRF1 in L6 muscle cells,MuRF1,reduced
